Here are results for 19 molecules from patent US20120225062A1 (priority 2011, published 2012).

In assay [1] the target is Pim 1 (Homo sapiens, UniProt P11309). Put plainly: Pim 1 AlphaScreen assay (high ATP). On the technique in general: Alpha assays give light when donor and acceptor beads are brought close together.
The subject of assay [2] is KMS11 (human myeloma cell line). In words: Cell Proliferation Assay (CellTiter-Glo, 3 days). Particulars: KMS-11, 72 h, KMS11-luc cells. It counts as cell-based. The essentials:
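KMS11 myeloma cells, 2000 per well in IMDM with 10% FBS, exposed to compound for 3 days at 37° C. Viability read by CellTiter-Glo luminescence; EC50 derived.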
For orientation: Cellular ATP, detected with luciferase, serves as a proxy for viable cell number.

The target of assay [3] is Pim 2 (Homo sapiens, UniProt Q9P1W9). Put plainly: Pim 2 AlphaScreen assay (high ATP).
Pim 2, sequence (Q9P1W9 whole entry): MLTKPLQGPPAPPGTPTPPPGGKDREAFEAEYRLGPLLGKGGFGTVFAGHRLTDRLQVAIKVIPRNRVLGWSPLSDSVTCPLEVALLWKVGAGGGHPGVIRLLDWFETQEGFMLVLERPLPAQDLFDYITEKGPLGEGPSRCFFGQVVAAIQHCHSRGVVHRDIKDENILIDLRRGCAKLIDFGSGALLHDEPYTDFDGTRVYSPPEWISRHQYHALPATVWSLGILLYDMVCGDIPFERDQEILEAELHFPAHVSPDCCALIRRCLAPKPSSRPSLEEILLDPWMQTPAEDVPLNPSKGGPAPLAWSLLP
The target in assay [4] is Pim 3 (Homo sapiens, UniProt Q86V86). In words: Pim 3 AlphaScreen assay (high ATP).

Each structure is given as a SMILES string.

Pim 1, sequence (P11309 whole entry): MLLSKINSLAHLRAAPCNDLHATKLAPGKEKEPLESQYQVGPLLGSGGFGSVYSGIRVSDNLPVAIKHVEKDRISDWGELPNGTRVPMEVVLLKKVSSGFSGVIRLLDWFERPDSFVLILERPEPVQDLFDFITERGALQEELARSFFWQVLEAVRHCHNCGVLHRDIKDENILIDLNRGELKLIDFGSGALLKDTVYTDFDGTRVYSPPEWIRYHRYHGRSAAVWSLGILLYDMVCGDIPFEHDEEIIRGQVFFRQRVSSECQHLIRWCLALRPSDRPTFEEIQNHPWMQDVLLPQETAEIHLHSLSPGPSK

Regarding `C[C@H]1CN(c2ccncc2NC(=O)c2nc(-c3c(F)cc(C(C)(C)O)cc3F)c(F)cc2N)C[C@@H](N)[C@@H]1O` [Example 102, 3-amino-N-(4-((3R,4R,5S)-3-amino-4-hydroxy-5-methylpiperidin-1-yl)pyridin-3-yl)-6-(2,6-difluoro-4-(2-hydroxypropan-2-yl)phenyl)-5-fluoropicolinamide], the IC50 (in general, the midpoint of a concentration-inhibition curve) in assay [1] came to 0.01 nM; in assay [3], 0.75 nM; in assay [4], 0.13 nM. For the same molecule, the EC50 – broadly, the concentration at which the effect is half-maximal – in assay [2] worked out at 15 nM.

With `C[C@H]1CN(c2ccncc2NC(=O)c2ccc(F)c(-c3c(F)cc(C4(O)CC4)cc3F)n2)C[C@@H](N)[C@@H]1O` [Example 103, N-(4-((3R,4R,5S)-3-amino-4-hydroxy-5-methylpiperidin-1-yl)pyridin-3-yl)-6-(2,6-difluoro-4-(1-hydroxycyclopropyl)phenyl)-5-fluoropicolinamide], the values for the IC50 in assay [1], in assay [3] and in assay [4] were 0.02 nM, 0.68 nM and 0.37 nM, respectively. Moreover, in assay [2], the response was half-maximal at 21 nM (EC50).

Consider `CCC(=O)c1cc(F)c(-c2nc(C(=O)Nc3cnccc3N3C[C@@H](N)[C@H](O)[C@@H](C)C3)ccc2F)c(F)c1` [Example 104, N-(4-((3R,4R,5S)-3-amino-4-hydroxy-5-methylpiperidin-1-yl)pyridin-3-yl)-6-(2,6-difluoro-4-propionylphenyl)-5-fluoropicolinamide], for which the IC50 in assay [1] is 0.02 nM; in assay [3], 0.95 nM; in assay [4], 0.45 nM. This molecule yielded an EC50 in assay [2] of 19 nM.

In the case of `C[C@H]1CN(c2ccncc2NC(=O)c2ccc(F)c(-c3c(F)cc(O[C@@H]4CCCOC4)cc3F)n2)C[C@@H](N)[C@@H]1O` [Example 105, N-(4-((3R,4R,5S)-3-amino-4-hydroxy-5-methylpiperidin-1-yl)pyridin-3-yl)-6-(2,6-difluoro-4-((R)-tetrahydro-2H-pyran-3-yloxy)phenyl)-5-fluoropicolinamide], the results for the IC50 in assay [1], in assay [3] and in assay [4] were 0.01 nM, 0.64 nM and 0.17 nM, respectively. Besides, the EC50 in assay [2] stood at 96 nM.

Take `C[C@H]1CN(c2ccncc2NC(=O)c2ccc(F)c(-c3c(F)cc(O[C@H]4CCCOC4)cc3F)n2)C[C@@H](N)[C@@H]1O` [Example 106, N-(4-((3R,4R,5S)-3-amino-4-hydroxy-5-methylpiperidin-1-yl)pyridin-3-yl)-6-(2,6-difluoro-4-((S)-tetrahydro-2H-pyran-3-yloxy)phenyl)-5-fluoropicolinamide]: the concentration for half-maximal inhibition (IC50) in assay [1] came out at 0.01 nM; in assay [3], 0.52 nM; in assay [4], 0.13 nM. The midpoint of the response in assay [2], the EC50, lay at 154 nM.

For `C[C@H]1CN(c2ccncc2NC(=O)c2nc(-c3c(F)cc(C4COC4)cc3F)c(F)cc2N)C[C@@H](N)[C@@H]1O` [Example 107, 3-amino-N-(4-((3R,4R,5S)-3-amino-4-hydroxy-5-methylpiperidin-1-yl)pyridin-3-yl)-6-(2,6-difluoro-4-(oxetan-3-yl)phenyl)-5-fluoropicolinamide], the results for the IC50 in assay [1], in assay [3] and in assay [4] were 0.02 nM, 1.03 nM and 0.31 nM, respectively. The same molecule came in with an EC50 in assay [2] of 157 nM.

Regarding `COCCc1cc(F)c(-c2nc(C(=O)Nc3cnccc3[C@H]3C[C@@H](N)[C@H](O)[C@@H](C)C3)ccc2F)c(F)c1` [Example 108, N-(4-((1R,3R,4R,5S)-3-amino-4-hydroxy-5-methylcyclohexyl)pyridin-3-yl)-6-(2,6-difluoro-4-(2-methoxyethyl)phenyl)-5-fluoropicolinamide], the IC50 in assay [1] came to 0.04 nM; in assay [3], 2.93 nM; in assay [4], 1.19 nM. Besides, the EC50 in assay [2] came to 906 nM.

Take `COCCc1cc(F)c(-c2nc(C(=O)Nc3cnccc3N3C[C@@H](N)[C@H](O)[C@@H](C)C3)ccc2F)c(F)c1` [Example 109, N-(4-((3R,4R,5S)-3-amino-4-hydroxy-5-methylpiperidin-1-yl)pyridin-3-yl)-6-(2,6-difluoro-4-(2-methoxyethyl)phenyl)-5-fluoropicolinamide]: the IC50 in assay [1] stood at 0.01 nM; in assay [3], 0.38 nM; in assay [4], 0.14 nM. In assay [2], this molecule showed an EC50 of 28 nM.

Consider `CC(C)[C@@H]1C[C@H](N)C[C@H](c2ccncc2NC(=O)c2ccc(F)c(-c3c(F)cc(C(C)(C)O)cc3F)n2)C1` [Example 119, N-(4-((1R,3S,5S)-3-amino-5-isopropylcyclohexyl)pyridin-3-yl)-6-(2,6-difluoro-4-(2-hydroxypropan-2-yl)phenyl)-5-fluoropicolinamide], for which the values for the IC50 in assay [1], in assay [3] and in assay [4] were 0.01 nM, 1.36 nM and 0.42 nM, respectively. In addition, in assay [2], a half-maximal effect (EC50) was put at 17 nM.

As for `COCCOc1cc(F)c(-c2nc(C(=O)Nc3cnccc3[C@H]3C[C@@H](N)[C@H](O)[C@@H](C)C3)c(N)cc2F)c(F)c1` [Example 120, 3-amino-N-(4-((1R,3R,4R,5S)-3-amino-4-hydroxy-5-methylcyclohexyl)pyridin-3-yl)-6-(2,6-difluoro-4-(2-methoxyethoxy)phenyl)-5-fluoropicolinamide], the IC50 is 0.03 nM in assay [1], 3.78 nM in assay [3] and 0.51 nM in assay [4]. Also, in assay [2], the EC50 was determined as 32 nM.

On to `Cc1cc(F)c(-c2nc(C(=O)Nc3cnccc3[C@H]3C[C@@H](N)C[C@@H](C(C)C)C3)ccc2F)c(F)c1` [Example 123, N-(4-((1R,3S,5S)-3-amino-5-isopropylcyclohexyl)pyridin-3-yl)-6-(2,6-difluoro-4-methylphenyl)-5-fluoropicolinamide], for which the figures for the IC50 in assay [1], in assay [3] and in assay [4] were 0.02 nM, 0.8 nM and 0.58 nM, respectively. The same molecule returned an EC50 in assay [2] of 59 nM.

In the case of `COCCOc1cc(F)c(-c2nc(C(=O)Nc3cnccc3[C@H]3C[C@@H](N)[C@@H](O)[C@@H](C)C3)ccc2F)c(F)c1` [Example 124, N-(4-((1R,3R,4S,5S)-3-amino-4-hydroxy-5-methylcyclohexyl)pyridin-3-yl)-6-(2,6-difluoro-4-(2-methoxyethoxy)phenyl)-5-fluoropicolinamide], the IC50 stood at 0.06 nM in assay [1], 7.18 nM in assay [3] and 1.72 nM in assay [4]. This molecule registered an EC50 in assay [2] of 119 nM.

Regarding `CC(C)Oc1cc(F)c(-c2nc(C(=O)Nc3cnccc3[C@H]3C[C@@H](N)[C@@H](O)[C@@H](C)C3)ccc2F)c(F)c1` [Example 125, N-(4-((1R,3R,4S,5S)-3-amino-4-hydroxy-5-methylcyclohexyl)pyridin-3-yl)-6-(2,6-difluoro-4-isopropoxyphenyl)-5-fluoropicolinamide], the IC50 turned out to be 0.03 nM in assay [1], 1.82 nM in assay [3] and 0.96 nM in assay [4]. In assay [2], this molecule registered an EC50 of 100 nM.

Take `C[C@@H]1C[C@H](N)C[C@H](c2ccncc2NC(=O)c2ccc(F)c(-c3c(F)cc(C4(F)CCOCC4)cc3F)n2)C1` [Example 126, N-(4-((1R,3S,5S)-3-amino-5-methylcyclohexyl)pyridin-3-yl)-6-(216-difluoro-4-(4-fluorotetrahydro-2H-pyran-4-yl)phenyl)-5-fluoropicolinamide]: the IC50 came out at 0.02 nM in assay [1], 1.33 nM in assay [3] and 1.15 nM in assay [4]. Moreover, the EC50 in assay [2] amounted to 64 nM.

Regarding `COC(C)(C)c1cc(F)c(-c2nc(C(=O)Nc3cnccc3N3C[C@@H](N)[C@H](O)[C@@H](C)C3)ccc2F)c(F)c1` [Example 130, N-(4-((3R,4R,5S)-3-amino-4-hydroxy-5-methylpiperidin-1-yl)pyridin-3-yl)-6-(2,6-difluoro-4-(2-methoxypropan-2-yl)phenyl)-5-fluoropicolinamide], the IC50 in assay [1] was 0.02 nM; in assay [3] it was 1.36 nM; in assay [4] it was 0.42 nM. The same molecule had an EC50 in assay [2] of 24 nM.

Regarding `C[C@H]1CN(c2ccncc2NC(=O)c2ccc(F)c(-c3c(F)cc(CC(C)(C)O)cc3F)n2)C[C@@H](N)[C@@H]1O` [Example 131, N-(4-((3R,4R,5S)-3-amino-4-hydroxy-5-methylpiperidin-1-yl)pyridin-3-yl)-6-(2,6-difluoro-4-(2-hydroxy-2-methylpropyl)phenyl)-5-fluoropicolinamide], the values for the IC50 in assay [1], in assay [3] and in assay [4] were 0.01 nM, 1.31 nM and 0.18 nM, respectively. In assay [2], this molecule displayed an EC50 of 25 nM.

Regarding `C[C@@H]1C[C@H](N)C[C@H](c2ccncc2NC(=O)c2ccc(F)c(-c3c(F)cc(OCCN4CCCC4=O)cc3F)n2)C1` [Example 132, N-(4-((1R,3S,5S)-3-amino-5-methylcyclohexyl)pyridin-3-yl)-6-(2,6-difluoro-4-(2-(2-oxopyrrolidin-1-yl)ethoxy)phenyl)-5-fluoropicolinamide], the IC50 in assay [1] turned out to be 0.02 nM; in assay [3], 4.78 nM; in assay [4] it was 1.1 nM. The EC50 in assay [2] came out at 206 nM.

As to `CC(C)[C@@H]1C[C@H](N)C[C@H](c2ccncc2NC(=O)c2ccc(F)c(-c3c(F)cc(C4(O)CCC4)cc3F)n2)C1` [Example 133, N-(4-((1R,3S,5S)-3-amino-5-isopropylcyclohexyl)pyridin-3-yl)-6-(2,6-difluoro-4-(1-hydroxycyclobulyl)phenyl)-5-fluoropicolinamide], the IC50 stood at 0.02 nM in assay [1], 1.77 nM in assay [3] and 0.7 nM in assay [4]. In assay [2], this molecule registered an EC50 of 31 nM.

For `CCOCc1cc(F)c(-c2nc(C(=O)Nc3cnccc3[C@H]3C[C@@H](N)[C@@H](O)[C@@H](C)C3)ccc2F)c(F)c1` [Example 134, N-(4-((1R,3R,4S,5S)-3-amino-4-hydroxy-5-methylcyclohexyl)pyridin-3-yl)-6-(4-(ethoxymethyl)-2,6-difluorophenyl)-5-fluoropicolinamide], the IC50 was 0.13 nM in assay [1], 9.57 nM in assay [3] and 4.89 nM in assay [4]. In assay [2], it took 228 nM to reach a half-maximal effect (EC50).
